SMILES strings stand for the structures. Like-named read-outs stand apart in the source and are kept apart here.

The subject of series [1] is cataract. The settings on record: cited from earlier work.
Series [2] concerns lens (cataract after streptozocin administration). In words: Slit-lamp observation of progress of cataract in streptozocin-treated rats (Experiment 1). It is filed as in vivo, male S.D. strain rats. Particulars: vs control group, lens observed 7-35 days after streptozocin. The protocol: Test procedure: 4-week-old male S.D. strain rats were purchased from Shizuoka Prefecture Animals Farmers' Cooperative, grouped by 10 animals after 5 days of preliminary feeding, and subjected to the test. […] To the vitamin E group, tocopherol acetate (50 mg/ml) was given orally in the same way at the dose of […] (400 mg/kg/day). To the control group, tap water was orally given at 200 μl/100 g.
0 No opacity is observed in the lens.
I The surface of the lens is slightly opaque or small vacuoles appear on the equator.
II Vacuoles increase in number and distribute over the cortex while fusing with each other.
III Vacuoles distributed over the most part of the cortex begin to disappear.
IV Most vacuoles have disappeared, and the whole cortex becomes opaque and translucent.
V The nucleoplasm becomes opaque.
VI The whole lens becomes white turbid.

In series [3] the test system is rabbit lens epithelial cells. In words: Test System I: MDA formed by auto-oxidation of docosahexaenoic acid in culture of lens epithelial cells. It counts as cell-based. The settings on record: for Amount of MDA in culture medium: 24 hours, normal 1.5, control 29.2. An excerpt: (§1) The inhibitory effect of 2-0-octadecylascorbic acid [compound (I-A)]on lens epithelial cells was studied.
(§2) The lens epithelial cells were obtained from a male white rabbit weighing about 2 kg. Thus, after the […] was sacrificed, the eyeballs were immediately enucleated and subjected to the following aseptic procedures. The eyeballs were washed with Hank's balanced salt solution (pH 7.2), disinfected by 30-second immersion in 80% alcohol and re-washed with the same balanced salt solution. Then, using a small knife, the sclera was cut open from the posterior part of the bulb and the lens was taken out. The retina, vitreous body and the zonule of Zinn were removed. Then, the capsule was punctured and separated from the lens by means of forceps. (The epithelial cells came off with the capsule). The separated capsule was incubated in 0.01% EDTA-0.125% trypsin at 37° C. for 20 minutes After addition of the culture medium mentioned below, the mixture was centrifuged at 1,000 rpm for 2 minutes. By repeating this procedure, the epithelial cells were isolated. These cells were subjected to a few serial passages and used in the experiment. The culture medium was Eagle's medium (MEM) supplemented with 15% bovine fetal serum.
(§3) The following two oxidation systems were used in the experiment: the system using the cytotoxic effect of lipid peroxidation products produced by auto-oxidation of docosahexaenoic acid as an indicator and the system using the cytotoxic effect of activated oxygen species produced by the xanthine-xanthine oxidase system as an indicator. Thus, the confluent cells in dishes were incubated in the following media for 24 hours and the lipid peroxides in the cultures were determined.
(§4) (1) Normal: Cultured in MEM only
(§5) (2) Control: Cultured in MEM supplemented
with 250 μg/ml of docosahexaenoic
(3) Drug: Cultured in MEM supplemented
(§6) The thiobarbituric acid method of Yagi [Anal. Biochem., 95, 351-358 (1979)]was used for Test System I and the method of Nakashima [Chem. Pharm. Bull., 33. 5380-5384 (1985)]and Ohsawa [Anal. Sci., 1, 473-476 (1985)]using 1,3-diphenyl-2-thiobarbituric acid was employed with some modification for Test System II.

Series [4] concerns rabbit lens epithelial cells. In words: Test System II: MDA formed by activated oxygen species of the xanthine-xanthine oxidase system in culture of lens epithelial cells. The settings on record: for Amount of MDA in culture medium: 24 hours, normal 0.005, control 0.134. It is filed as cell-based.
From the text: as §1, §2, §3, §4, §5
with 1 mM of xanthine and 0.01
U/ml of xanthine oxidase
(3) Drug: Cultured in MEM supplemented with
1 mM of xanthine and 0.01 U/ml of
xanthine oxidase plus the drug.
as §6

For series [5], the system named is cataract. The settings on record: instillation; many specialists doubtful; cited from earlier work.
The mark [6] stands for this setting: cited from Mechanism of Cataract Formation in the Human Lens (1981).

Turning to `COc1cccc2c1C(=O)c1c(O)c3c(c(O)c1C2=O)C[C@@](O)(C(=O)CO)C[C@@H]3O[C@H]1C[C@H](N)[C@H](O)[C@H](C)O1` [Adriamycin], the Induction of cataract result in the series with cataract [1] (setting [6]) is “induce cataract”.
As to `CC(=O)Oc1c(C)c(C)c2c(c1C)CCC(C)(CCC[C@H](C)CCC[C@H](C)CCCC(C)C)O2` (stereo partly shown) [vitamin E, tocopherol acetate, reference compound], in series [2] (oral tocopherol acetate 400 mg/kg/day), the “Delay of progress of cataract (lens stage by slit lamp)” value was “did not delay the progress of cataract”.
Regarding `Cc1c(C)c2c(c(C)c1O)CCC(C)(CCCC(C)CCCC(C)CCCC(C)C)O2` (racemic) [DL-α-Tocopherol, DL-α-tocopherol, reference compound], the “Amount of MDA in culture medium” value in series [3] (drug 125 μg/ml) is 4.2 ± 0.1 n mole/ml; in series [4] (drug 10 μg/ml), 0.009 ± 0.011 n mole/ml. In addition, the “Concentration for the same effect relative to compound (I-A)” value in series [3] (multiple of the concentration of compound (I-A)) is reported as “about 50 times”.
As to `CCCCCCCCCCCCCCCCCCOC1=C(O)C(C(O)CO)OC1=O` (stereo not shown) [Compound (I-A), 2-0-octadecylascorbic acid], the “Amount of MDA in culture medium” value in series [3] (drug 2.5 μg/ml) is given as 6.5 ± 0.1 n mole/ml; in series [3] (drug 5 μg/ml), 5.8 ± 0.7 n mole/ml; in series [3] (drug 10 μg/ml) it was 10.3 ± 0.6 n mole/ml; in series [4] (drug 2 μg/ml), 0.024 ± 0.015 n mole/ml; in series [4] (drug 10 μg/ml), 0.016 ± 0.014 n mole/ml; in series [4] (drug 50 μg/ml), 0.001 ± 0.001 n mole/ml. In addition, the “Inhibition of formation of MDA (in words)” value in series [3] (higher concentrations) is on record as “inhibitory effect was attenuated”; in series [3] (low concentrations (<5 μg/ml)), “strongly inhibit the formation of MDA”. Further, the “Effect relative to DL-α-tocopherol (in words)” value in series [4] is given as “as effective as DL-α-tocopherol”. Moreover, the “Inhibition of MDA (in words)” value in series [4] was “substantially complete inhibition of MDA”. Besides, the “Delay of progress of cataract (lens stage by slit lamp)” value in series [2] (oral, 100 mg/kg/day first two days then 40 mg/kg/day, Kruskal-Wallis H-test) is “delayed significantly the progress of cataract”.
With `CN(N=O)C(=O)N[C@@H](C=O)[C@@H](O)[C@H](O)[C@H](O)CO` [streptozocin], the Induction of cataract result in the series on cataract [1] (setting [6]) is on record as “induce cataract”.
Regarding `Nc1nc[nH]n1` [amizole], the Induction of cataract result in the series with cataract [1] (in vivo) is “induce cataract”.
Consider `N[C@@H](CCC(=O)N[C@@H](CS)C(=O)NCC(=O)O)C(=O)O` [glutathione], for which, in the series on cataract [5], the “Effectiveness for treatment of cataract” value is “effective to some extent”.

(Values after US4826872A, “Pharmaceutical composition for treatment of cataract” (Takeda Chemical Industries, Ltd., priority 1986, dated 1989).)
